Experimental data taken from US20200384135A1, “CANCER IMAGING WITH THERAPY: THERANOSTICS” (Virginia Commonwealth University, priority 2010, published 2020).

Assays:
Assay type in all cases: in vivo, mice
[1] = system: breast cancer metastasis model, BCa-1; test: Cross-comparison of PEG-Prom-mediated SPECT imaging and FDG-PET; conditions: BCa-1, PET acquired same day as SPECT
Experimental: FIGS. 7A-7D. Detection and localization of metastatic masses of melanoma after the systemic administration of pPEG-HSV1 tk by SPECT-CT imaging. Transverse, coronal and sagittal views of co-registered SPECT-CT images of Mel-2 (7A) and Mel-3 (7B, 7C and 7D) from FIG. 6C. All images were obtained at 24 h after [^125I]FIAU injection, which was 70 h after the IV administration of pPEG-HSV1 tk/PEI polyplex. Gross anatomical details of the metastatic masses that were located based on the SPECT-CT images in 7A, 7B, 7C and 7D. Multiple metastatic sites were detected by SPECT-CT imaging in Mel-2 (7A, dotted circle). […] (7B) Accumulated radioactivity was detected adjacent to the thoracic mid-spine toward the left side (white arrow), which corresponded to a tumor mass at this location. […] Melanoma was uncovered immediately above the diaphragm (f, white dotted circle) and in the left inguinal lymph node, correlating with 7C and 7D. Cross-comparison of the PEG-Prom-mediated imaging and FDG-PET in abreast cancer metastasis model, BCa-1. Two nodules (Tu-1 and -2) were detected by [^125I]FIAU-SPECT near the heart and were confirmed by necropsy. […] SPECT images were acquired 48 h post-injection of [^125I]FIAU, which was 94 h after the pPEG-HSV1 tk/PEI delivery. The PET images were acquired on the same day as the SPECT data. […]

[2] = system: PC3-ML-Luc metastases; test: FDG-PET/CT, intra-cardiac PC3-ML-Luc metastasis model; conditions: PCa-3, same mouse
Experimental: (§1) FIGS. 17A-E. AEG-Prom-based SPECT/CT imaging detects distant metastasis not identified by NaF- or FDG-PET/CT. The experimental metastases model, PCa-3 (n=5), was developed by intra-cardiac injection of 5×10^4 PC3-ML-Luc cells, SPECT/CT images for PCa-3 and a representative healthy control Ctrl-1 were obtained at 18-20 h after [^125I]FIAU injection, which was 66-68 h after IV administration of pAEG-HSV1tk-PEI polyplex. (17A, 17B) NaF-PET/CT, AEG-Prom SPECT/CT and FDG-PET imaging in Ctrl-1 (17A) and the PC3-ML-Luc model. PCa-3 (17B). (17D, 17E) Gross pathology of the metastatic nodules that were located on the basis of the SPECT/CT images. ([…]) Ex vivo BLI of the dissected organs, imaged within 20 min of euthanasia. […] A possible L1 lesion was detected by FDG/PET (17B). […]
(§2) Cloning of plasmid constructs. pPEG-Luc and pAEG-Luc were generated as described previously (3, 28). […] Luminescence was normalized for transfection efficiency by co-transfection with a vector expressing renilla luciferase, pGL4.74[hRluc/TK] […] After 48 h of transfection, the expression level of the Luc reporter was measured by the Dual Luciferase Reporter Assay kit (Promega). Luminescence was normalized for cell number (by μg total protein) using the BCA Protein Assay Kit (Pierce Biotechnology, Rockford, Ill.). […]

[3] = system: PC3-ML-Luc metastases; test: NaF-PET/CT, intra-cardiac PC3-ML-Luc metastasis model; conditions: PCa-3
Experimental: as §1, §2

Compound	Detection of nodule Tu-2 (smaller nodule attached to the heart) [1]	Detection of metastatic lesions by FDG-PET/CT [2]	Detection of metastatic lesions by NaF-PET/CT [3]
OC[C@H]1OC(O)[C@H]([18F])[C@@H](O)[C@@H]1O (stereo partly drawn) [FDG, [^18F]fluorodeoxyglucose]	not obvious in the PET image	only able to identify a lesion in the left shoulder	
[18F-].[Na+] [NaF, [^18F]NaF]			failed to identify the metastases within tibia and axial skeleton
